Data from US20230295096A1, “PYRAZOLE CARBOXAMIDE COMPOUNDS FOR TREATMENT OF HBV” (ASSEMBLY BIOSCIENCES, INC., priority 2020, published 2023).
Where two headings read alike, the source gives them in different places.

Test system: HBV
Assay: Viral load production from HepAD38 cells, qPCR of the HBV core sequence in supernatant
Type: cell-based
Conditions: HepAD38 cells, 5 days, HBV DNA in supernatant by qPCR
Outline: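 EC50 and CC50 come from four-parameter logistic fits of supernatant HBV core DNA (TaqMan qPCR, DNA standards, compared with DMSO wells) and of CellTiter-Glo luminescence.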

[1] = Hepatitis B virus, HePAD38, 120 h, Table 1 ranges, read-out: Activity (viral load lowering EC50)

SMILES | EC50 [1] | EC50 (Table 2 ranges, read-out: VL HepAD38 EC50 range)
Cn1nc(C2CC3CC(CNC(=O)C(C)(C)CO)CC3C2)c(C(=O)Nc2ccc(F)c(Cl)c2)c1N (centres unmarked) [Example 67, 5-Amino-N-(3-chloro-4-fluorophenyl)-3-(5-((3-hydroxy-2,2-dimethylpropanamido)methyl)octahydropentalen-2-yl)-1-methyl-1H-pyrazole-4-carboxamide] | < 10 nM | 
COc1ccc(C2(O)CC3CC(c4nn(C)c(N)c4C(=O)Nc4ccc(F)c(Cl)c4)CC3C2)cc1 (centres unmarked) [Example 5, 5-Amino-N-(3-chloro-4-fluorophenyl)-3-(5-hydroxy-5-(4-methoxyphenyl)octahydropentalen-2-yl)-1-methyl-1H-pyrazole-4-carboxamide] | < 10 nM | 
Cn1nc(C2CC3CC(CNS(=O)(=O)C4(C)CC4)CC3C2)c(C(=O)Nc2ccc(F)c(Cl)c2)c1N (stereo not drawn) [Example 95, 5-Amino-N-(3-chloro-4-fluorophenyl)-1-methyl-3-(5-(((1-methylcyclopropane)-l-sulfonamido)methyl)octahydropentalen-2-yl)-1H-pyrazole-4-carboxamide] | < 10 nM | 
Cn1nc(C2CC3CC(CNC(=O)C4CCCCC4)CC3C2)c(C(=O)Nc2ccc(F)c(Cl)c2)c1N (centres unmarked) [Example 76, 5-Amino-N-(3-chloro-4-fluorophenyl)-3-(5-(cyclohexanecarboxamidomethyl)octahydropentalen-2-yl)-1-methyl-1H-pyrazole-4-carboxamide] | 10 to 50 nM | 
Cn1nc(C2CC3CC(O)(c4nc5cc(F)c(F)cc5n4C)CC3C2)c(C(=O)Nc2ccc(F)c(Cl)c2)c1N (centres unmarked) [Example 152] | 10 to 50 nM | 
Cn1nc(C2CC3CC(O)(C(F)(F)C(F)(F)F)CC3C2)c(C(=O)Nc2ccc(F)c(Cl)c2)c1N (centres unmarked) [Example 32, 5-Amino-N-(3-chloro-4-fluorophenyl)-3-(5-hydroxy-5-(perfluoroethyl)octahydropentalen-2-yl)-1-methyl-1H-pyrazole-4-carboxamide] | 10 to 50 nM | 
Cn1nc(C2CC3CC(O)C(c4ccccc4)C3C2)c(C(=O)Nc2ccc(F)c(Cl)c2)c1N (single isomer, unassigned) [Example 142, 5-Amino-N-(3-chloro-4-fluorophenyl)-3-(5-hydroxy-4-phenyloctahydropentalen-2-yl)-1-methyl-1H-pyrazole-4-carboxamide] |  | < 100 nM
C[C@H](NC(=O)C1CC2CC(c3nn(C)c(N)c3C(=O)Nc3ccc(F)c(Cl)c3)CC2C1)C(F)(F)F (single isomer, unassigned) [Example 103] | 10 to 50 nM | 
Cn1nc(C2CC3CC(CNS(=O)(=O)C(F)(F)F)CC3C2)c(C(=O)Nc2ccc(F)c(Cl)c2)c1N (centres unmarked) [Example 93, 5-Amino-N-(3-chloro-4-fluorophenyl)-1-methyl-3-(5-(((trifluoromethyl)sulfonamido)methyl)octahydropentalen-2-yl)-1H-pyrazole-4-carboxamide] | 10 to 50 nM | 
Cn1nc(C2CC3CC(O)(c4cn[nH]n4)CC3C2)c(C(=O)Nc2ccc(F)c(Cl)c2)c1N (centres unmarked) [Example 173] | 10 to 50 nM | 
Cn1ncnc1C1(O)CC2CC(c3nn(C)c(N)c3C(=O)Nc3ccc(F)c(Cl)c3)CC2C1 (centres unmarked) [Example 193] | < 10 nM | 
Cn1nc(C2CC3CC(O)(C(F)F)CC3C2)c(C(=O)Nc2ccc(F)c(Cl)c2)c1N (centres unmarked) [Example 30, 5-Amino-N-(3-chloro-4-fluorophenyl)-3-(5-(difluoromethyl)-5-hydroxyoctahydropentalen-2-yl)-1-methyl-1H-pyrazole-4-carboxamide] | 10 to 50 nM | 
Cn1nc(C2CC3CC(O)(Cc4nccs4)CC3C2)c(C(=O)Nc2ccc(F)c(Cl)c2)c1N (centres unmarked) [Example 160] | < 10 nM | 
Cn1nc(C2CC3CC(CNC(=O)C(C)(C)C4CCN(C(=O)OC(C)(C)C)CC4)CC3C2)c(C(=O)Nc2ccc(F)c(Cl)c2)c1N (centres unmarked) [Example 70, tert-Butyl 4-(1-(((5-(5-amino-4-((3-chloro-4-fluorophenyl)carbamoyl)-1-methyl-1H-pyrazol-3-yl)octahydropentalen-2-yl)methyl)amino)-2-methyl-1-oxopropan-2-yl)piperidine-1-carboxylate] | 10 to 50 nM | 
Cn1cc(C2(O)CC3CC(c4nn(C)c(N)c4C(=O)Nc4ccc(F)c(Cl)c4)CC3C2)nn1 (centres unmarked) [Example 23, 5-Amino-N-(3-chloro-4-fluorophenyl)-3-(5-hydroxy-5-(1-methyl-1H-1,2,3-triazol-4-yl)octahydropentalen-2-yl)-1-methyl-1H-pyrazole-4-carboxamide] | < 10 nM | 
Cn1nc(C2CC3CC(CNS(C)(=O)=O)CC3C2)c(C(=O)Nc2ccc(F)c(Cl)c2)c1N (centres unmarked) [Example 88, 5-Amino-N-(3-chloro-4-fluorophenyl)-1-methyl-3-(5-(methylsulfonamidomethyl)octahydropentalen-2-yl)-1H-pyrazole-4-carboxamide] | < 10 nM | 
Cn1nc(C2CC3CC(O)(c4c[nH]nc4C(F)(F)F)CC3C2)c(C(=O)Nc2ccc(F)c(Cl)c2)c1N (centres unmarked) [Example 156, 5-amino-N-(3-chloro-4-fluorophenyl)-3-(5-hydroxy-5-(3-(trifluoromethyl)-1H-pyrazol-4-yl)octahydropentalen-2-yl)-1-methyl-1H-pyrazole-4-carboxamide] | < 10 nM | 
Cn1nc(N)cc1C1(O)CC2CC(c3nn(C)c(N)c3C(=O)Nc3ccc(F)c(Cl)c3)CC2C1 [Example 155, 5-amino-3-((2 s,3aR,5r,6aS)-5-(3-amino-1-methyl-1H-pyrazol-5-yl)-5-hydroxyoctahydropentalen-2-yl)-N-(3-chloro-4-fluorophenyl)-1-methyl-1H-pyrazole-4-carboxamide] | < 10 nM | 
Cn1nc(C(F)(F)F)cc1C1(O)CC2CC(c3nn(C)c(N)c3C(=O)Nc3ccc(F)c(Cl)c3)CC2C1 (centres unmarked) [Example 159] | 10 to 50 nM | 
Cc1nnc(C2(O)CC3CC(c4nn(C)c(N)c4C(=O)Nc4ccc(F)c(Cl)c4)CC3C2)o1 (centres unmarked) [Example 176] | 10 to 50 nM | 
Cn1nc(C2CC3CC(N4CC=C(C(=O)O)CC4)CC3C2)c(C(=O)Nc2ccc(F)c(Cl)c2)c1N (centres unmarked) [Example 188] | > 500 nM | 
Cn1nc(C2CC3C=C(c4ccn[nH]4)CC3C2)c(C(=O)Nc2ccc(F)c(Cl)c2)c1N (centres unmarked) [Example 197] | < 10 nM | 
Cc1cc(C2(O)CC3CC(c4nn(C)c(N)c4C(=O)Nc4ccc(F)c(Cl)c4)CC3C2)c(F)cn1 (centres unmarked) [Example 154] | < 10 nM | 
